Results taken from patent publication US20180243465A1, “HEMOSTATIC MATERIAL” (BAXTER INTERNATIONAL INC., priority 2015, published 2018).
No end group written: not given here. PVA‑NB hydrogel particulates = not defined here

Tests used:
whole blood = assay: Rotational thromboelastometry (ROTEM) of recalcified citrated whole blood; type: cell-based, human; conditions: for clotting time (CT) vs saline control / clot formation time (CFT) vs saline control: 1 mM; for clotting time (CT) vs saline control: FIG. 8A; for clot formation time (CFT) vs saline control: FIG. 8B; for clotting time (CT) as % of the physiological CT: whole blood
Text: ROTEM (TEM Innovation, Germany) was applied to monitor the interactions of platelet-activating polymers and whole blood over time. ROTEM system contains an oscillating sensor pin that is immersed in a temperature-controlled cuvette containing the blood sample. Four measurements can be performed in parallel in the same device. Generally, coagulation of the citrated blood sample is initiated by re-calcification. The formation kinetics of a fibrin clot could be monitored mechanically and calculated by an integrated computer to the typical curves and numerical parameters.
Blood was collected from three un-medicated and healthy donors using minimal stasis from an antecubital vein through a 21-gauge needle. After discarding the first 3 ml, blood was collected in 3.5 ml tubes (Vacuette; Greiner Bio-One) containing 0.3 ml buffered 3.2% sodium citrate. The samples were kept on a pre-warming stage at 37° C. for at least 10 min prior to analysis and were processed within 3 h. ROTEM analysis of the whole blood sample was initiated by recalcification with the addition of 20 μl of CaCl2 (star-TEM®, 200 mM). Polymer solutions and/or polymer suspensions were added directly to the cuvette immediately after recalcification of the citrated blood and mixed by gently pipetting up and down as previously reported.^[21] The final reaction volume per ROTEM cuvette was 370 μl, consisting of 300 μl citrated whole blood, 20 μl CaCl2 and 50 μl polymer solution or polymer suspension.
We next studied the hemostatic efficacy of PVA-TRAP6 in comparison with TRAP6 and PVA-NB using rotational thromboelastometry (ROTEM),^[21, 22] which is a clinical diagnostic tool allowing in situ characterization of viscoelastic properties of blood clot during coagulation. […] Clotting time (CT) refers to the latency until the clot reaches a firmness of 2 mm while maximum clot firmness (MCF) refers to the maximum amplitude of the curve, which indicates the absolute strength of the clot.

platelets [1] = assay: FACS analysis of platelet activation (CD41/CD62p co-expression); type: cell-based, human
Method: The blood of two unmedicated and healthy donors was collected and stabilized by sodium citrate. […] Twenty microliter of TRAP6-C solution (14 mg mL^−1) and/or 20 μL of NaCl solution (0.9%) were added as the positive control and the negative control, respectively. The incubated mixture was mixed with 300 μL of 1% paraformaldehyde for 15 min at room temperature. After washing and centrifugation a double immuno-staining was performed using 20 μL of phycoerythrin (PE) labeled monoclonal antibody directed against CD41 and 20 μL of allophycocyanin (APC) labeled monoclonal antibody directed against CD62P. Isotype controls were incubated with mouse IgG antibodies conjugated with APC or PE dye, respectively (all antibodies were purchased from BD Biosciences, Heidelberg, Germany). After 30 min incubation at room temperature the activation state of the platelets was determined using fluorescence flow cytometry. Expression of the platelet activation marker CD62P and the constitutively present platelet marker CD41 were detected using a Beckmann Coulter Cytomics FC-500 equipped with Uniphase Argon ion laser, 488 nm, 20 mW output. Overall 100 000 platelets were measured per sample and analyzed with the Cytomics CXP software. The experiment was repeated twice.
We next utilized flow cytometry (FACS) to quantify the extent of platelet activation. Platelets can be distinguished from other blood cells by the constitutive expression of the surface antigen CD41, which recognizes the platelet membrane glycoprotein GpIIb which is non-covalently associated with GpIIIa (the integrin beta 3 chain) to form the GpIIb/IIIa complex. Importantly, the CD62p (P-selectin) membrane glycoprotein is exclusively expressed on activated platelets. The CD62p marker was used to identify the extent of activation in human platelets after incubation with the studied materials (PVA-TRAP6, TRAP6, PVA-NB, and NaCl).

platelets [2] = assay: Multiplate platelet aggregation assay in hirudinized whole blood; type: cell-based, human; conditions: for aggregation area: 0.1 mM TRAP6 equivalent, 6 min measurement
Method: The principle of Multiplate test is based on the fact that platelets become sticky upon activation, and thus prone to adhere and aggregate on the metal sensor wires in the Multiplate test cuvette. The sensor wires are made of highly conductive copper, which is silver-coated. As activated platelets adhere and aggregate on the sensor wires, the electrical resistance between the wires rises, which can be monitored in real time. For each measurement, 300 μL of saline and 300 μL of hirudinized whole blood was added sequentially to a Multiplate cuvette. After 3 min incubation at 37° C., 20 μL of sample solution was added and at the same time the program started to collect signals. The Multiplate device allows 4 measurements in parallel. Each measurement was performed for 6 min and in duplicate.
In order to quantify the extent of platelet activation, we utilized Multiplate assay to investigate the influence of PVA-TRAP6, TRAP6 and PVA-NB on platelet aggregation. The principle of this method is based on the fact that platelets become sticky upon activation, and thus prone to adhere and aggregate on the metal sensor wires in the Multiplate test cuvette. As activated platelets adhere and aggregate on the sensor wires, the electrical resistance between the wires rises, which can be continuously monitored. […] One key parameter of Multiplate assay is aggregation area (in Units), i.e. the area underneath the aggregation curve.

platelets [3] = conditions: from reference [12]; cited from earlier work

Method for C2C12 myoblasts: Cytotoxicities of PVA, PVA-NB and PVA-TRAP6 macromer solutions were evaluated via MTT assay. C2C12 cells were cultured in Dulbecco's Modified Eagles Medium (DMEM) supplemented with 5% fetal calf serum (FCS), 1% L-Glutamine, 1% Penicillin/Streptomycin (all from Sigma-Aldrich, Austria). Macromer solutions with three concentrations (5%, 1% and 0.1%) were prepared in DMEM culture medium. C2C12 cells were then seeded in a 96-well plate at a density of 5×10^3 cells per well in 200 μL of culture medium. After 24 h incubation (37° C., 5% CO2), 100 μL of the respective macromer solutions were added to the cells in triplicates. After 24 h incubation, cells were washed twice with sterile PBS before the addition of 100 μL thiazolyl blue tetrazolium bromide (MTT) working solution (5 mg/mL in PBS). After 1 h incubation, the liquid was discarded and 100 μl of DMSO was added to dissolve the formazan crystals. Finally, the absorbance was measured at 540 nm using a microplate reader.

Substance: PEG-TRAP6: PEG-10k-NHS reacted with the N-terminus of TRAP6, unreacted NHS groups blocked with glycine ({PEG 10 kDa}-SFLLRNPNC; also: unreacted NHS groups of PEG blocked with glycine) [reference compound]
- clotting time (CT) vs saline control (whole blood): this effect was lost
- clot formation time (CFT) vs saline control (whole blood): this effect was lost

Substance: PVA-TRAP6-P: insoluble crosslinked PVA-NB hydrogel particulates surface-functionalized with TRAP6-Cys peptide (SFLLRNPNC(PVA‑NB hydrogel particulates); reading uncertain)
- platelet activation vs soluble TRAP6 control (FACS) (platelets [1]; particulates): comparable extent as soluble TRAP6 control
- percentage of activated platelets (CD41+/CD62p+) (platelets [1]; particulates, 15 min incubation, whole blood): ~55%
- clotting time (CT) as % of the physiological CT (whole blood; particulate suspension 10 wt % in saline): ~50%

Substance: PVA-TRAP6: water-soluble conjugate of cysteine-containing TRAP6 peptide (SFLLRNPNC) on PVA-norbornene backbone by thiol-ene photo-click conjugation (SFLLRNPNC(PVA‑norbornene 22 kDa))
- platelet aggregation curve (platelets [2]; 0.1 mM): comparable to that of TRAP6
- aggregation area (platelets [2]): 130 U
- total platelet aggregation area (platelets [2]; 1 mM, FIG. 9A): comparable to that of TRAP6
- platelet activation (CD41/CD62P co-expression) (platelets [1]; 1 mM, FIG. 9B): very similar level as TRAP6 control
- CD41/CD62p co-expression (CD62p expression in CD41 positive cells) (platelets [1]; 15 min incubation, 0.1 mM, soluble system): ~80%
- clotting time (CT) (whole blood; 0.1 mM TRAP6 equivalent, compared with TRAP6 0.1 mM): very comparable to that of TRAP6
- maximum clot firmness (MCF) (whole blood; 0.1 mM, compared with TRAP6 control): relatively less than that of TRAP6 control
- clotting time (CT) vs saline control (whole blood): significantly shorten
- clot formation time (CFT) vs saline control (whole blood): significantly shorten
- clotting time (CT) as % of the physiological CT (whole blood; 0.1% PVA-TRAP6 solution): ~45%
- optimal hemostatic concentration (whole blood; peptide concentrations tested 0.01, 0.1, 1 mM, CT): 0.1 mM
- cytotoxicity (MTT assay) (C2C12 myoblasts): nontoxic

Substance: SFLLRN [TRAP6, reference compound]
- aggregation area (platelets [2]): 147 U
- clotting time (CT) vs saline control (whole blood): significant decrease
- clot formation time (CFT) vs saline control (whole blood): significant decrease
- dose influence on CT (whole blood; peptide concentrations 0.01, 0.1, 1 mM): no significant dose influences
- effective TRAP6-concentration for platelet activation (platelets [3]): 5 to 100 µM
